# Molecular target: mutant form of the human GPR119 receptor (Homo sapiens (Human), UniProt Q8TDV5, S329A/T327A)
# Experiment: LANCE cAMP-384 assay in HEK293 cells stably expressing a mutant form of human GPR119
# Assay type: cell-based
# Settings: 20 min at 37° C.
# Chain of mutant form of the human GPR119 receptor (Q8TDV5 other isoform, or with tags, fused parts or gaps T327A/S329A): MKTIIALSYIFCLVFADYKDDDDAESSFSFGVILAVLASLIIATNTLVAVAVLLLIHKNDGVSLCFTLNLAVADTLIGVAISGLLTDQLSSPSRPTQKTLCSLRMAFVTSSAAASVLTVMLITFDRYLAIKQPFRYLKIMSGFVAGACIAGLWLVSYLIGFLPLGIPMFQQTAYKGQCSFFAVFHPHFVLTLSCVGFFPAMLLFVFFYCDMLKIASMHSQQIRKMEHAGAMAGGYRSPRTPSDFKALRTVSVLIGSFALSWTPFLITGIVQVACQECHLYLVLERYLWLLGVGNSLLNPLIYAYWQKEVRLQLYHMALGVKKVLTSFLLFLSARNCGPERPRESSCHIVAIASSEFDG
row,SMILES,EC50 [µM]
1,"CC(C)OC(=O)N1CC[C@H](N(C(=O)c2ccc(-n3cncn3)c(F)c2)C2CC2)[C@H](F)C1 (single isomer, unassigned) [Example 48]",0.042
2,"CC(C)OC(=O)N1CC[C@@H](N(C(=O)c2ccc(-n3cncn3)c(F)c2)C2CC2)[C@@H](F)C1 (single isomer, unassigned) [Example 50]",1.02
3,"CC(C)OC(=O)N1CCC(N(C(=O)c2ccc(-n3cncn3)c(F)c2)C2CC2)CC1 [Example 49, 4-[Cyclopropyl-(3-fluoro-4-[1,2,4]triazol-1-yl-benzoyl)-amino]-piperidine-1-carboxylic acid isopropyl ester]",0.338
4,"Cc1nccn1-c1ccc(C(=O)N(C2CC2)C2CCN(C(=O)OC(C)C)CC2)cc1 [Example 51, 4-{Cyclopropyl-[4-(2-methyl-imidazol-1-yl)-benzoyl]-amino}-piperidine-1-carboxylic acid isopropyl ester]",1.58

# Molecular target: human GPR119 (Homo sapiens (Human), UniProt Q8TDV5)
# Sequence (Q8TDV5 whole entry): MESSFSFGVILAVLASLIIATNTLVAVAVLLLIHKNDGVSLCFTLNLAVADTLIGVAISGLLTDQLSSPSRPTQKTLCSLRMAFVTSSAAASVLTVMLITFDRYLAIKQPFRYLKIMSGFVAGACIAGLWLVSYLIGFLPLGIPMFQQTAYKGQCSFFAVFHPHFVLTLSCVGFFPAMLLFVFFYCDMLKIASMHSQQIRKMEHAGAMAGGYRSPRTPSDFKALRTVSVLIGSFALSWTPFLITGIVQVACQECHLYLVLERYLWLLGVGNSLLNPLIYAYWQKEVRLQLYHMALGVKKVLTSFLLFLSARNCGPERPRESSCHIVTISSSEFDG
# Experiment: AlphaScreen cAMP assay in MIN6 cells stably transfected with human GPR119
# Assay type: cell-based
# Settings: Min-6/hGPR119 cells, 45 min incubation at room temperature
# Outline: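 MIN6 cells stably expressing human GPR119 were seeded at 10000 cells/well for 24 h. Compounds were then applied in pH 7.4 buffer with 0.5 mM IBMX, 0.1% BSA and 1% DMSO for 45 min at about 20 °C. Intracellular cAMP was measured by AlphaScreen.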
row,SMILES,EC50 [µM]
1,"CCOc1ccc(-c2ccc(C(=O)N(C3CC3)C3CCN(C(=O)OC(C)(C)C)CC3)cc2)cn1 [Example 109, 4-{Cyclopropyl-[4-(6-ethoxy-pyridin-3-yl)-benzoyl]-amino}-piperidine-1-carboxylic acid tert-butyl ester]",0.316
2,"CC(C)(C)OC(=O)N1CCC(N(C(=O)c2ccc(-c3ccc(S(C)(=O)=O)cc3F)cc2)C2CC2)CC1 [Example 110, 4-[Cyclopropyl-(2′-fluoro-4′-methanesulfonyl-biphenyl-4-carbonyl)-amino]-piperidine-1-carboxylic acid tert-butyl ester]",0.044
3,"CNS(=O)(=O)c1ccc(-c2ccc(C(=O)N(C3CC3)C3CCN(C(=O)OC(C)(C)C)CC3)cc2)cc1 [Example 111, 4-[Cyclopropyl-(4′-methylsulfamoyl-biphenyl-4-carbonyl)-amino]-piperidine-1-carboxylic acid tert-butyl ester]",0.111
4,"CN(C)Cc1ccc(-c2ccc(C(=O)N(C3CC3)C3CCN(C(=O)OC(C)(C)C)CC3)cc2)cc1 [Example 112, 4-[Cyclopropyl-(4′-dimethylaminomethyl-biphenyl-4-carbonyl)-amino]-piperidine-1-carboxylic acid tert-butyl ester]",1.74
5,"CC(C)(C)OC(=O)N1CCC(N(C(=O)c2ccc(-c3cncc(C#N)c3)cc2)C2CC2)CC1 [Example 113, 4-{[4-(5-Cyano-pyridin-3-yl)-benzoyl]-cyclopropyl-amino}-piperidine-1-carboxylic acid tert-butyl ester]",0.048
6,"CN(C)c1ccc(-c2ccc(C(=O)N(C3CC3)C3CCN(C(=O)OC(C)(C)C)CC3)cc2)cn1 [Example 114, 4-{Cyclopropyl-[4-(6-dimethylamino-pyridin-3-yl)-benzoyl]-amino}-piperidine-1-carboxylic acid tert-butyl ester]",0.229
7,"CC(C)(C)OC(=O)N1CCC(N(C(=O)c2ccc(-c3ccc(C(=O)O)nc3)cc2)C2CC2)CC1 [Example 115, 5-{4[(1-tert-Butoxycarbonyl-piperidin-4-yl)-cyclopropyl-carbamoyl]-phenyl}-pyridine-2-carboxylic acid]",1.09
8,"COC(=O)N1CCC(N(C(=O)c2ccc(-c3cnco3)cc2)C2CC2)CC1 [Example 116, 4-[Cyclopropyl-(4-oxazol-5-yl-benzoyl)-amino]-piperidine-1-carboxylic acid methyl ester]",1.57
9,"CCOC(=O)N1CCC(N(C(=O)c2ccc(-c3cnco3)cc2)C2CC2)CC1 [Example 117, 4-[Cyclopropyl-(4-oxazol-5-yl-benzoyl)-amino]-piperidine-1-carboxylic acid ethyl ester]",0.222
10,"CC(C)OC(=O)N1CCC(N(C(=O)c2ccc(-c3cnco3)cc2)C2CC2)CC1 [Example 118, 4-[Cyclopropyl-(4-oxazol-5-yl-benzoyl)-amino]-piperidine-1-carboxylic acid isopropyl ester]",0.062
11,"O=C(Oc1ccc(F)cc1)N1CCC(N(C(=O)c2ccc(-c3cnco3)cc2)C2CC2)CC1 [Example 119, 4-[Cyclopropyl-(4-oxazol-5-yl-benzoyl)-amino]-piperidine-1-carboxylic acid 4-fluoro-phenyl ester]",0.089
12,"COc1ccc(OC(=O)N2CCC(N(C(=O)c3ccc(-c4cnco4)cc3)C3CC3)CC2)cc1 [Example 120, 4-[Cyclopropyl-(4-oxazol-5-yl-benzoyl)-amino]-piperidine-1-carboxylic acid 4-methoxy-phenyl ester]",0.071

# Further lines, results first:
row,EC50 [µM],SMILES
1,0.045,"CC(C)(C)COC(=O)N1CCC(N(C(=O)c2ccc(-c3cnco3)cc2)C2CC2)CC1 [Example 121, 4-[Cyclopropyl-(4-oxazol-5-yl-benzoyl)-amino]-piperidine-1-carboxylic acid 2,2-dimethyl-propyl ester]"
2,0.08,"CCCOC(=O)N1CCC(N(C(=O)c2ccc(-c3cnco3)cc2)C2CC2)CC1 [Example 123, 4-[Cyclopropyl-(4-oxazol-5-yl-benzoyl)-amino]-piperidine-1-carboxylic acid propyl ester]"
3,0.088,"O=C(Oc1ccccc1)N1CCC(N(C(=O)c2ccc(-c3cnco3)cc2)C2CC2)CC1 [Example 124, 4-[Cyclopropyl-(4-oxazol-5-yl-benzoyl)-amino]-piperidine-1-carboxylic acid phenyl ester]"
4,0.045,"CC(C)COC(=O)N1CCC(N(C(=O)c2ccc(-c3cnco3)cc2)C2CC2)CC1 [Example 125, 4-[Cyclopropyl-(4-oxazol-5-yl-benzoyl)-amino]-piperidine-1-carboxylic acid isobutyl ester]"
5,0.128,"O=C(OCc1ccccc1)N1CCC(N(C(=O)c2ccc(-c3cnco3)cc2)C2CC2)CC1 [Example 126, 4-[Cyclopropyl-(4-oxazol-5-yl-benzoyl)-amino]-piperidine-1-carboxylic acid benzyl ester]"
6,0.102,"C=CCOC(=O)N1CCC(N(C(=O)c2ccc(-c3cnco3)cc2)C2CC2)CC1 [Example 127, 4-[Cyclopropyl-(4-oxazol-5-yl-benzoyl)-amino]-piperidine-1-carboxylic acid allyl ester]"
7,0.034,"O=C(OC1CCCC1)N1CCC(N(C(=O)c2ccc(-c3cnco3)cc2)C2CC2)CC1 [Example 128, 4-[Cyclopropyl-(4-oxazol-5-yl-benzoyl)-amino]-piperidine-1-carboxylic acid cyclopentyl ester]"
8,0.113,"CC(C)OC(=O)N1CCC(N(C(=O)c2ccc(-c3ccc(C(N)=O)cc3)cc2)C2CC2)CC1 [Example 129, 4-[(4′-Carbamoyl-biphenyl-4-carbonyl)-cyclopropyl-amino]-piperidine-1-carboxylic acid isopropyl ester]"
9,0.01,"CC(C)(OC(=O)N1CCC(N(C(=O)c2ccc(-c3cnco3)cc2)C2CC2)CC1)C(F)(F)F [Example 130, 4-[Cyclopropyl-(4-oxazol-5-yl-benzoyl)-amino]-piperidine-1-carboxylic acid 2,2,2-trifluoro-1,1-dimethyl-ethyl ester]"
